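Values below derive from 48-hour exposures of cells grown in 96-well plates, with endpoints linearly interpolated between the two concentrations bracketing the appropriate inhibition level. GI50 = concentration required for 50% inhibition of growth.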 Activity calls are given as the source filed them. Cut-off read from the data, not from the text of the source: active = GI50 up to about 1.1 µM and inactive = higher.
What was measured:
Assay in all cases: NCI-60 cell line screen, 48 h
[1] = tested on: OVCAR-8
[2] = tested on: SK-MEL-28
[3] = tested on: CAKI-1
[4] = tested on: SK-OV-3
[5] = tested on: HT-29
[6] = tested on: EKVX
[7] = tested on: OVCAR-3
[8] = tested on: OVCAR-5
[9] = tested on: IGROV-1
[10] = tested on: SN12C
[11] = tested on: A498
[12] = tested on: HCT-116
[13] = tested on: UACC-257
[14] = tested on: NCI-H460
[15] = tested on: NCI-H23
[16] = tested on: CCRF-CEM
[17] = tested on: U-251

Measured: GI50

CCCCCCCCCC1CC(=O)OC23CCCC(=O)C12O3 (stereo not drawn)
inactive: [1] 52.1 µM | [2] > 100 µM | [3] > 100 µM | [4] > 100 µM | [5] > 100 µM | [6] > 100 µM | [7] > 100 µM | [8] > 100 µM | [9] > 100 µM | [10] > 100 µM | [11] 71.9 µM | [12] > 100 µM | [13] > 100 µM | [14] > 100 µM | [15] > 100 µM | [16] > 100 µM | [17] 97.1 µM

COc1ccc2c(c1)C1C(CO2)C(c2ccccc2)=NN1c1ccccc1 (stereo not drawn)
inactive: [1] > 100 µM | [2] 70.3 µM | [4] > 100 µM | [5] > 100 µM | [6] > 100 µM | [7] > 100 µM | [8] > 100 µM | [9] > 100 µM | [11] > 100 µM | [12] > 100 µM | [13] > 100 µM | [14] > 100 µM | [15] > 100 µM | [16] > 100 µM | [17] > 100 µM

O=S(=O)(c1ccccc1)C1CN2OC1(S(=O)(=O)c1ccccc1)CC21CCCCC1 (stereo not drawn)
inactive: [1] > 100 µM | [2] > 100 µM | [3] 73.3 µM | [4] > 100 µM | [5] > 100 µM | [6] > 100 µM | [7] > 100 µM | [8] > 100 µM | [9] > 100 µM | [10] > 100 µM | [12] > 100 µM | [13] > 100 µM | [14] 92.5 µM | [15] > 100 µM | [16] > 100 µM | [17] > 100 µM

COc1ccc(/C=C/C(=O)c2sc(-n3nc(-c4ccccc4)cc3-c3ccccc3)nc2C)cc1OC
inactive: [1] 31.4 µM | [2] 37.9 µM | [3] 54.2 µM | [4] > 100 µM | [5] 30.1 µM | [6] 26.1 µM | [7] 20.6 µM | [8] 32.1 µM | [9] 24.3 µM | [10] 31.6 µM | [12] 31.3 µM | [13] 39.5 µM | [14] 56.8 µM | [15] 34.9 µM | [16] 23.2 µM | [17] 28.8 µM

c1ccc(CN(Cn2cccn2)Cn2cccn2)nc1
inactive: [1] > 100 µM | [2] > 100 µM | [3] > 100 µM | [4] > 100 µM | [6] > 100 µM | [7] > 100 µM | [10] > 100 µM | [11] > 100 µM | [12] 61.5 µM | [13] > 100 µM | [14] > 100 µM | [15] > 100 µM | [16] > 100 µM | [17] > 100 µM

Nc1ccccc1C(=O)C(Br)C(Br)c1ccc2c(c1)OCO2 (stereo not drawn)
inactive: [1] 27.6 µM | [2] 23.4 µM | [4] 28.6 µM | [5] 17.3 µM | [6] 21.3 µM | [7] 16.7 µM | [9] 28.6 µM | [10] 24.9 µM | [11] 24.4 µM | [12] 16.4 µM | [13] 19.1 µM | [14] 18.6 µM | [15] 19.9 µM | [16] 26 µM | [17] 21.6 µM

O=C1OC(c2ccc(Cl)c3ccccc23)c2ccccc21 (stereo not drawn)
inactive: [1] > 100 µM | [2] > 100 µM | [3] 75.5 µM | [4] > 100 µM | [5] 55.3 µM | [6] > 100 µM | [8] > 100 µM | [9] > 100 µM | [10] > 100 µM | [11] > 100 µM | [12] 91.2 µM | [13] > 100 µM | [14] > 100 µM | [15] > 100 µM | [16] 91.6 µM | [17] > 100 µM

COc1cc2c(cc1OC)C(CC(=O)NN=C(C)C)NCC2 (stereo not drawn)
inactive: [1] > 100 µM | [2] > 100 µM | [3] > 100 µM | [4] > 100 µM | [5] > 100 µM | [6] > 100 µM | [7] > 100 µM | [8] > 100 µM | [9] > 100 µM | [10] > 100 µM | [11] > 100 µM | [12] > 100 µM | [13] > 100 µM | [14] > 100 µM | [15] > 100 µM | [16] > 100 µM | [17] > 100 µM

CC(C)(C)C1CCC(CI)(N=[N+]=[N-])CC1 (stereo not drawn)
inactive: [1] > 100 µM | [3] > 100 µM | [4] > 100 µM | [5] > 100 µM | [6] > 100 µM | [7] > 100 µM | [8] > 100 µM | [9] > 100 µM | [10] > 100 µM | [11] > 100 µM | [12] > 100 µM | [13] > 100 µM | [14] > 100 µM | [15] > 100 µM | [16] > 100 µM | [17] > 100 µM

N#Cc1ccc2cc3c(cc2c1)OCO3
inactive: [2] > 100 µM | [4] > 100 µM | [5] > 100 µM | [7] > 100 µM | [8] 76.6 µM | [9] > 100 µM | [10] > 100 µM | [11] 28.4 µM | [12] 91 µM | [14] > 100 µM | [15] > 100 µM | [16] > 100 µM | [17] 80.2 µM

COc1ccccc1NC(=O)CC(=O)n1nc(C)c(/N=N/c2ccccc2F)c1C
inactive: [1] 44.6 µM | [2] > 100 µM | [3] > 100 µM | [4] 31.3 µM | [5] > 100 µM | [6] > 100 µM | [7] > 100 µM | [8] > 100 µM | [9] > 100 µM | [10] > 100 µM | [11] > 100 µM | [12] > 31.6 µM | [13] > 100 µM | [14] > 100 µM | [15] > 96.2 µM | [16] > 10 µM | [17] 58.6 µM

COc1cc2cc3c4c(cc(OC)c(OC)c4c2cc1OC)CCN3C(=O)OCCBr
inactive: [1] > 100 µM | [2] > 100 µM | [3] 41.9 µM | [4] > 100 µM | [5] 50.1 µM | [6] 10.1 µM | [7] > 100 µM | [8] > 100 µM | [9] > 100 µM | [10] 45 µM | [11] 19.8 µM | [12] 50.9 µM | [13] > 100 µM | [14] 33.2 µM | [15] 81.7 µM | [16] 20.6 µM | [17] > 100 µM

CNC(N)NC
inactive: [1] > 100 µM | [2] > 100 µM | [4] > 100 µM | [5] > 100 µM | [6] > 100 µM | [7] > 100 µM | [8] > 100 µM | [9] > 100 µM | [10] > 100 µM | [11] > 100 µM | [12] > 100 µM | [13] > 100 µM | [14] > 100 µM | [15] > 100 µM | [16] > 100 µM | [17] > 100 µM

C/C1=N\[N-]C(=O)c2ccccc2C(=O)N/N=C(\C)c2cccc1n2.O=[N+]([O-])[O-].[Zn+2]
inactive: [1] > 100 µM | [2] > 100 µM | [3] > 100 µM | [4] > 100 µM | [5] > 100 µM | [6] > 100 µM | [7] > 100 µM | [8] > 100 µM | [9] > 100 µM | [10] > 100 µM | [11] > 100 µM | [12] > 100 µM | [13] > 100 µM | [14] > 100 µM | [15] > 100 µM | [16] > 100 µM | [17] > 100 µM

COc1cc2c(cc1OC)C(O)[C@H](Br)C(C)(C)O2 (stereo partly drawn)
inactive: [1] > 100 µM | [2] > 100 µM | [4] > 100 µM | [5] > 100 µM | [6] > 100 µM | [7] > 100 µM | [8] > 100 µM | [9] > 100 µM | [10] > 100 µM | [12] > 100 µM | [13] > 100 µM | [14] > 100 µM | [15] > 100 µM | [16] > 100 µM | [17] > 100 µM

CCN(CC)CCNc1ccc2nnn3c4ccc(C)cc4c(=O)c1c23
inactive: [1] 5.22 µM | [2] 15.5 µM | [3] 13.2 µM | [4] 10.9 µM | [5] 4.14 µM | [7] 13.2 µM | [8] 6.71 µM | [9] 10.4 µM | [10] 8 µM | [11] 15.5 µM | [12] 3.78 µM | [13] 13.2 µM | [14] 3.85 µM | [15] 11.7 µM | [16] 4.16 µM | [17] 11.5 µM

NC(=O)c1cccc([N+](=O)[O-])c1
inactive: [1] > 100 µM | [2] > 100 µM | [3] > 100 µM | [4] > 100 µM | [5] > 100 µM | [6] > 100 µM | [7] > 100 µM | [9] > 100 µM | [10] > 100 µM | [11] > 100 µM | [13] > 100 µM | [14] > 100 µM | [15] > 100 µM | [16] > 100 µM | [17] > 100 µM
